Data published in PMC12723470, “Heteromultivalent Nanogels as Highly Potent Inhibitors of Pseudomonas Aeruginosa” (Angewandte Chemie (International Ed. in English), 2025).

Test system: 72 h mature P. aeruginosa biofilm
Assay: Mature biofilm eradication assay
Assay type: cell-based, Pseudomonas aeruginosa
Settings: 24 h treatment
Experimental: Inspired by the results of planktonic bactericidal experiments, we further evaluated the anti‐biofilm activity of the nanogels. […] This observation further reinforces our hypothesis that heteromultivalent nanogels with glyco‐residues and the BMAP‐18 peptide contribute to the long‐term eradication of P. aeruginosa. Further, a mature biofilm eradication assay was performed. […] More than 99.9% biofilm‐coated P. aeruginosa were inactivated (Figure 4a and S10). […] Overall, biofilm inhibition experiments with different control NG, NG‐Fuc/Gal and PNG‐Fuc/Gal reveal that PNG‐Fuc/‐Gal decomposes biofilm by a binding and killing mechanism. First, they bind with bacteria surface lectins via their specific sugar ligands and then inactivate using their surface BMAPs leading to a strong reduction in the biofilm matrix.
Figure 4 a) P. aeruginosa biofilm matrix visualization after 72 h of treatment with samples (red: biofilm matrix, scale bar = 20 µm), b) Biofilm coated‐ P. aeruginosa viability after 12 h treatment of samples. c) Mature P. aeruginosa biofilm visualization after 12 h of treatment with samples, and statistics for thickness and roughness (mean ± SD, n = 7), d) Mature P. aeruginosa biofilm visualization after 24 h of treatment with samples, and statistics for thickness and roughness (mean ± SD, n = 7). 0.01 <*p< […], 0.001 <**p < 0.01, ***p < 0.001, compared with Control group.

NC[C@H]1O[C@H](O[C@H]2[C@H](O)[C@@H](O[C@H]3O[C@H](CO)[C@@H](O)[C@H](N)[C@H]3O)[C@H](N)C[C@@H]2N)[C@H](N)C[C@@H]1O [tobramycin]
change of mature biofilm when treatment extended from 12 h to 24 h: did not show significant changes
